Values of other authors as cited in patent US20230330185A1, “METHODS AND COMPOSITIONS FOR TRANSDUCING HEMATOPOIETIC STEM AND PROGENITOR CELLS IN VIVO” (Magenta Therapeutics, Inc., priority 2020, published 2023).

System: hematopoietic stem and progenitor cells
Details: as described in U.S. Pat. No. 6,080,398 and 6,447,766; cited from earlier work

Row | Substance | potency to induce hematopoietic stem and progenitor cell mobilization, relative to parent peptide
1 | Gro-β T N65D: variant of Gro-β T with aspartic acid in place of asparagine at position 65, SEQ ID NO: 4 | substantially greater than that of Gro-β T
2 | Gro-β T: truncated Gro-β with deletion of the first four N-terminal amino acids, SEQ ID NO: 2; CXCR2 agonist | superior to that of Gro-β by multiple orders of magnitude
